Test results from ChEMBL document CHEMBL3045687, “Anti-microbial benzimidazole derivatives: synthesis and in vitro biological evaluation” (2012).

Experiments:
Type in all cases: functional
Escherichia coli = assay: Antimicrobial activity against Escherichia coli assessed as zone of inhibition at 12.5 ug/ml after 18 to 24 hr by two-fold dilution technique relative to control
Staphylococcus aureus = assay: Antimicrobial activity against Staphylococcus aureus assessed as zone of inhibition at 12.5 ug/ml after 18 to 24 hr by two-fold dilution technique relative to control
Candida albicans = assay: Antimicrobial activity against Candida albicans assessed as zone of inhibition at 25 ug/ml after 48 hr by two-fold dilution technique relative to control

SMILES | zone of inhibition at 12.5 µg/mL (Escherichia coli; read-out: DIZ) [mm] | zone of inhibition at 12.5 µg/mL (Staphylococcus aureus; read-out: DIZ) [mm] | inhibition at 12.5 µg/mL (Escherichia coli) [%] | inhibition at 12.5 µg/mL (Staphylococcus aureus) [%] | inhibition at 25 µg/mL (Candida albicans) [%] | zone of inhibition at 25 µg/mL (Candida albicans; read-out: DIZ) [mm]
O=C(O)c1cn(C2CC2)c2cc(N3CCNCC3)c(F)cc2c1=O [CIPROFLOXACIN] | 15.9 | 14.4 |  |  |  | 
O=[N+]([O-])c1ccc(/C=C/c2nc3cc([N+](=O)[O-])ccc3[nH]2)cc1 |  |  | 77.1 | 69.7 | 75.3 | 
COc1ccc(/C=C/c2nc3cc(Cl)ccc3[nH]2)cc1OC |  |  | 80.5 | 75.2 | 92.4 | 
COc1ccc(/C=C/c2nc3cc([N+](=O)[O-])ccc3[nH]2)c(OC)c1OC |  |  | 76.6 | 75.2 | 82.5 | 
Oc1ccc(/C=C/c2nc3cc(Cl)ccc3[nH]2)cc1 |  |  | 79.9 | 70.8 | 75.6 | 
OC(Cn1cncn1)(Cn1cncn1)c1ccc(F)cc1F [FLUCONAZOLE] |  |  |  |  |  | 13.4
COc1ccc(/C=C/c2nc3cc(Cl)ccc3[nH]2)c(OC)c1OC |  |  | 80.5 | 72.7 | 93.1 | 
O=[N+]([O-])c1ccc2[nH]c(/C=C/c3ccc(O)cc3)nc2c1 |  |  | 76.9 | 72.1 | 75 | 
O=[N+]([O-])c1ccc2[nH]c(/C=C/c3ccc(Cl)cc3)nc2c1 |  |  | 80.7 | 82.1 | 84.2 | 
Clc1ccc2[nH]c(/C=C/c3ccccc3)nc2c1 |  |  | 77.7 | 76.2 | 88.5 | 
